Source: the supplement of paper PMC10307832

What was measured:
Test in all cases: relative viability (nuclei count vs DMSO), 5 days (fraction); higher = more cells survive
[1] = compound: C1COCCN1C2=CC(=O)C3=C(O2)C(=CC=C3)C4=CC=CC5=C4SC6=CC=CC=C56
How it was run: (§1)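 Lung cancer cell lines received five library-drug doses (not always all listed) spaced by √10, pinned on vehicle-anchored 1536-well plates after an overnight stay at 37 °C. Five days later, with no medium change, nuclei were Hoechst-stained, imaged at 4× and counted with MetaXpress. Viability is treated-well nuclei relative to vehicle-well nuclei, as a median across plates. Passing plates had control CV below 25% and at least one doubling.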

[2] = compound: O=c1cc(-c2cccc3c2Sc2ccccc2S3)oc(N2CCOCC2)c1
How it was run: as §1

Zibotentan = compound: COc1nc(C)cnc1NS(=O)(=O)c1cccnc1-c1ccc(-c2nnco2)cc1 [Zibotentan]
How it was run: as §1

[3] = compound: CCN(CC)CCCCNc1ncc2cc(-c3cc(OC)cc(OC)c3)c(NC(=O)NC(C)(C)C)nc2n1
How it was run: as §1

PRIMA-1MET = compound: COCC1(CO)C(=O)C2CCN1CC2 [PRIMA-1MET]
How it was run: as §1

Row | Cell Line | relative viability ([1]; 0.01 µM) | relative viability ([1]; 0.03162 µM) | relative viability ([1]; 0.1 µM) | relative viability ([1]; 0.3162 µM) | relative viability ([1]; 1 µM) | relative viability ([2]; 0.08 µM) | relative viability ([2]; 0.253 µM) | relative viability ([2]; 0.8 µM) | relative viability ([2]; 2.53 µM) | relative viability ([2]; 8 µM) | relative viability (Zibotentan; 0.08 µM) | relative viability (Zibotentan; 0.253 µM) | relative viability (Zibotentan; 0.8 µM) | relative viability (Zibotentan; 2.53 µM) | relative viability ([3]; 0.01 µM) | relative viability ([3]; 0.03162 µM) | relative viability ([3]; 0.1 µM) | relative viability ([3]; 0.3162 µM) | relative viability ([3]; 1 µM) | relative viability (PRIMA-1MET; 0.2 µM) | relative viability (PRIMA-1MET; 0.6325 µM) | relative viability (PRIMA-1MET; 2 µM) | relative viability (PRIMA-1MET; 6.325 µM) | relative viability (PRIMA-1MET; 20 µM)
1 | NCI-H661 | 0.965 | 1.01 | 0.98 | 0.991 | 0.969 | 0.996 | 1 | 0.948 | 0.942 | 0.951 | 1.01 | 0.912 | 0.951 | 0.987 | 1.06 | 1 | 1.03 | 1.09 | 0.993 | 1.03 | 0.917 | 0.991 | 1 | 0.957
2 | NCI-H727 | 0.91 | 0.858 | 0.874 | 0.888 | 0.958 | 0.908 | 1.08 | 0.758 | 0.899 | 0.924 | 0.847 | 0.872 | 0.966 | 1.01 | 0.985 | 0.978 | 0.94 | 1.07 | 0.882 | 1.01 | 0.865 | 0.625 | 0.615 | 0.331
3 | NCI-H838 | 1.04 | 0.966 | 0.98 | 0.99 | 0.893 | 0.979 | 1.09 | 0.862 | 0.947 | 0.887 | 0.962 | 0.87 | 0.987 | 0.998 | 0.99 | 0.971 | 1.01 | 0.97 | 0.643 | 1.05 | 0.946 | 0.841 | 1.08 | 0.659
4 | NCI-H1299 | 1.01 | 0.987 | 1.02 | 0.994 | 1.01 | 1.02 | 1.02 | 1.04 | 1.02 | 1.01 | 1.02 | 1.02 | 0.998 | 1.02 | 1.03 | 1.06 | 1.09 | 1.06 | 1.02 | 1.08 | 1.03 | 1.03 | 1.02 | 0.977
5 | NCI-H1355 | 0.991 | 1.04 | 0.74 | 1.03 | 0.928 | 0.955 | 1.13 | 0.837 | 0.904 | 0.953 | 1 | 0.984 | 0.955 | 1 | 1.08 | 0.938 | 1.04 | 1.11 | 0.939 | 0.955 | 0.908 | 0.894 | 0.973 | 0.927
6 | NCI-H1395 | 0.944 | 0.987 | 0.888 | 1.15 | 0.822 | 0.816 | 0.863 | 1.02 | 0.81 | 1.23 | 1.02 | 0.819 | 0.901 | 1.16 | 0.731 | 0.894 | 0.979 | 0.869 | 0.652 | 0.925 | 0.676 | 0.866 | 0.964 | 0.551
7 | NCI-H1437 | 0.955 | 0.98 | 1.02 | 1.05 | 0.959 | 1.01 | 1.16 | 1.11 | 0.918 | 1.18 | 1.02 | 0.882 | 0.964 | 0.995 | 1.08 | 0.979 | 1.08 | 1.11 | 0.945 | 1.03 | 0.859 | 0.971 | 1 | 0.96
8 | NCI-H1563 | 0.972 | 1.01 | 0.944 | 0.975 | 0.977 | 0.973 | 0.988 | 0.933 | 0.989 | 0.986 | 1.04 | 0.716 | 1 | 1.09 | 1.03 | 0.95 | 1.04 | 0.928 | 0.729 | 1.05 | 0.968 | 0.806 | 1.06 | 0.457
9 | NCI-H1623 | 0.939 | 0.932 | 0.888 | 0.931 | 0.888 | 1.03 | 0.981 | 0.957 | 0.944 | 1.07 | 0.936 | 0.744 | 1.05 | 0.85 | 0.951 | 0.888 | 0.913 | 0.993 | 0.933 | 1.07 | 0.943 | 0.926 | 0.997 | 0.598
10 | NCI-H1648 | 0.861 | 1.03 | 1.14 | 0.932 | 0.959 | 0.742 | 1.16 | 0.792 | 0.591 | 0.921 | 1.04 | 0.786 | 0.84 | 0.932 | 1.02 | 1.16 | 0.927 | 0.656 | 0.544 | 0.852 | 0.715 | 1.07 | 0.722 | 0.75
11 | NCI-H1650 | 0.788 | 0.893 | 0.998 | 0.957 | 0.788 | 0.851 | 1.07 | 0.844 | 0.888 | 0.868 | 0.937 |  | 0.994 | 0.968 | 0.981 | 0.983 | 1.08 | 0.981 | 0.706 | 1.1 | 0.858 | 0.793 | 0.912 | 0.489
12 | NCI-H1651 | 0.983 | 0.976 | 0.975 | 0.998 | 0.944 | 0.974 | 1.13 | 0.983 | 0.941 | 1.07 | 1.03 | 0.912 | 0.937 | 1.03 | 1.04 | 0.988 | 1.05 | 1.06 | 0.979 | 1.08 | 0.901 | 0.907 | 1.04 | 0.946
13 | NCI-H1666 | 0.996 | 0.959 | 1.01 | 1.02 | 0.953 | 0.94 | 1.09 | 1.02 | 0.911 | 1 | 1.02 | 0.879 | 1.03 | 1.06 | 0.942 | 0.993 | 1 | 1.17 | 0.973 | 0.993 | 0.868 | 0.962 | 0.938 | 0.942
14 | NCI-H1703 | 1.19 | 0.926 | 0.964 | 0.958 | 0.861 | 0.718 | 1.01 | 1.03 | 0.925 | 0.843 | 0.972 | 0.94 | 1.25 | 0.505 | 0.832 | 0.854 | 1.19 | 1.04 | 0.723 | 1.19 | 0.852 | 0.815 | 0.797 | 0.0528
